Source: ChEMBL document CHEMBL1201862, “PubChem BioAssay data set” (2004)
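Cells were grown in 96-well plates and exposed to each compound for 48 hours at five concentrations; endpoints were interpolated linearly between bracketing concentrations, or set to the highest concentration if not reached. The concentration for 50% growth inhibition is given as GI50.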 Active and inactive are the calls of the source. No stated cut-off is given here; in the data, active = GI50 up to about 1.1 µM and inactive = higher. Where a SMILES comes first, the peptide text is derived from it. Bridges are numbered along the chain shown (N, C = ends). [ ]: non-standard residue; d: D form. The star is where a group is joined. ξ: configuration not given here. PhAc = O=C(Cc1ccccc1)*; ξP = O=C(O)C1CCCN1

Experiments:
Experiment in all cases: NCI anticancer screen, dose series, 48 h
ACHN = system: ACHN
MDA-MB-435 = system: MDA-MB-435
UO-31 = system: UO-31
MOLT-4 = system: MOLT-4
SK-MEL-28 = system: SK-MEL-28
SF-268 = system: SF-268
HL-60 = system: HL-60
NCI-H226 = system: NCI-H226
MDA-MB-231 = system: MDA-MB-231
COLO 205 = system: COLO 205
MCF7 = system: MCF7
U-251 = system: U-251
Malme-3M = system: Malme-3M
SK-OV-3 = system: SK-OV-3
RXF 393 = system: RXF 393
OVCAR-3 = system: OVCAR-3
SK-MEL-2 = system: SK-MEL-2
BT-549 = system: BT-549
786-0 = system: 786-0
UACC-257 = system: UACC-257

Measured: GI50

COc1ccc(N2C(=O)C3c4[nH]c5ccccc5c4C4CCCCCCCCCC4C3C2=O)cc1 (configuration not stated)
inactive: ACHN > 10 µM | MDA-MB-435 > 10 µM | UO-31 > 10 µM | MOLT-4 > 10 µM | SK-MEL-28 > 10 µM | SF-268 > 10 µM | HL-60 > 10 µM | NCI-H226 > 10 µM | MDA-MB-231 > 10 µM | COLO 205 > 10 µM | MCF7 > 10 µM | U-251 > 10 µM | Malme-3M > 10 µM | SK-OV-3 > 10 µM | RXF 393 > 10 µM | OVCAR-3 > 10 µM | SK-MEL-2 > 10 µM

O=C(COc1cc(=O)oc2ccccc12)c1ccccc1
inactive: ACHN 19.8 µM | UO-31 > 10 µM | MOLT-4 > 100 µM | BT-549 24.6 µM | SK-MEL-28 32.3 µM | SF-268 48.5 µM | HL-60 > 100 µM | NCI-H226 19.1 µM | MDA-MB-231 83.8 µM | MCF7 > 100 µM | U-251 17.7 µM | Malme-3M > 100 µM | RXF 393 > 10 µM | 786-0 30.2 µM | OVCAR-3 19.4 µM | SK-MEL-2 30.7 µM | UACC-257 > 100 µM

O=C(Cc1ccccc1)N[C@@H]1COC(=O)C2CCCN2C(=O)[C@@H]2CCCN2C1=O (some centres not stated) (PhAc-[dS]-Pro-[ξP]; ester 1-C)
inactive: ACHN > 100 µM | MDA-MB-435 > 100 µM | MOLT-4 > 100 µM | SK-MEL-28 > 100 µM | SF-268 > 100 µM | HL-60 > 100 µM | NCI-H226 > 100 µM | MDA-MB-231 > 100 µM | COLO 205 > 100 µM | MCF7 > 100 µM | Malme-3M > 100 µM | SK-OV-3 > 100 µM | RXF 393 > 100 µM | 786-0 > 100 µM | OVCAR-3 > 100 µM | SK-MEL-2 > 100 µM | UACC-257 > 100 µM

C=CCOc1ccc(C(/N=N\c2ccc(Cl)cc2)=N/NC(=O)c2ccccc2)cc1OC
inactive: ACHN 89.1 µM | MDA-MB-435 34.7 µM | UO-31 54.8 µM | MOLT-4 32.1 µM | BT-549 20.4 µM | SK-MEL-28 19 µM | SF-268 > 100 µM | HL-60 33.8 µM | NCI-H226 53.7 µM | MDA-MB-231 > 100 µM | COLO 205 85.3 µM | MCF7 > 100 µM | U-251 57.3 µM | Malme-3M 51.3 µM | 786-0 > 100 µM | OVCAR-3 62.7 µM | SK-MEL-2 > 100 µM | UACC-257 41.8 µM

C[C@]12C=CC(=O)C=C1CC[C@@H]1[C@@H]2CC[C@@]2(C)[C@H]1CC[C@]2(O)C(N)=O
inactive: ACHN > 100 µM | MDA-MB-435 > 100 µM | UO-31 > 100 µM | MOLT-4 > 100 µM | BT-549 > 100 µM | SK-MEL-28 > 100 µM | SF-268 > 100 µM | HL-60 > 100 µM | NCI-H226 > 100 µM | MDA-MB-231 > 100 µM | COLO 205 > 100 µM | U-251 > 100 µM | Malme-3M > 100 µM | SK-OV-3 > 100 µM | RXF 393 > 100 µM | 786-0 > 100 µM | OVCAR-3 > 100 µM | SK-MEL-2 > 100 µM | UACC-257 50.8 µM

N#Cc1c(-c2ccc(Cl)cc2)cc(-c2ccc(Nc3ccnc4cc(Cl)ccc34)cc2)nc1N
inactive: ACHN > 100 µM | MDA-MB-435 > 100 µM | UO-31 > 100 µM | BT-549 > 100 µM | SK-MEL-28 > 100 µM | SF-268 > 100 µM | HL-60 > 100 µM | NCI-H226 > 100 µM | MDA-MB-231 > 100 µM | COLO 205 > 100 µM | U-251 97.1 µM | Malme-3M > 100 µM | SK-OV-3 > 100 µM | RXF 393 > 100 µM | 786-0 > 100 µM | OVCAR-3 > 100 µM | SK-MEL-2 > 100 µM

C[N+]1(CC[N+]2(C)CCCC2c2cccnc2)CCCC1c1cccnc1 (configuration not stated)
inactive: ACHN > 100 µM | MDA-MB-435 33.2 µM | UO-31 > 100 µM | MOLT-4 2.75 µM | BT-549 > 100 µM | SK-MEL-28 61.8 µM | SF-268 > 100 µM | MDA-MB-231 > 100 µM | COLO 205 86.1 µM | MCF7 > 100 µM | U-251 60 µM | Malme-3M 59.3 µM | SK-OV-3 > 100 µM | RXF 393 > 100 µM | 786-0 30.4 µM | OVCAR-3 > 100 µM | SK-MEL-2 > 100 µM | UACC-257 76.2 µM

CSc1nc2c3ccccc3ccn2c1C(=O)N/N=C/c1ccccc1
inactive: ACHN 9.06 µM | MDA-MB-435 > 100 µM | UO-31 21.8 µM | MOLT-4 > 100 µM | SK-MEL-28 > 100 µM | SF-268 19.7 µM | HL-60 > 100 µM | NCI-H226 36 µM | MDA-MB-231 18.1 µM | COLO 205 > 73.6 µM | MCF7 > 46.3 µM | U-251 15.8 µM | Malme-3M 47.6 µM | SK-OV-3 19.6 µM | RXF 393 32 µM | 786-0 15.5 µM | OVCAR-3 17.9 µM | SK-MEL-2 > 95.7 µM | UACC-257 > 100 µM

COc1cc2c(cc1OC)C1Cc3ccccc3CCN1CC2 (configuration not stated)
inactive: ACHN > 100 µM | MDA-MB-435 > 100 µM | UO-31 27.2 µM | MOLT-4 35.1 µM | BT-549 > 100 µM | SK-MEL-28 > 100 µM | SF-268 > 100 µM | HL-60 > 100 µM | NCI-H226 60.4 µM | MDA-MB-231 > 100 µM | COLO 205 64.4 µM | MCF7 > 100 µM | U-251 > 100 µM | Malme-3M > 100 µM | SK-OV-3 > 100 µM | 786-0 50 µM | OVCAR-3 > 100 µM | SK-MEL-2 > 100 µM | UACC-257 > 100 µM

O=Cc1c2c(cc3c1CC1(C3)Cc3cc4c(c(C=O)c3C1)CCCC4)CCCC2
inactive: ACHN 22.9 µM | MDA-MB-435 > 31.6 µM | MOLT-4 13.3 µM | SK-MEL-28 > 100 µM | SF-268 > 100 µM | HL-60 56.1 µM | NCI-H226 > 31.6 µM | MDA-MB-231 27.6 µM | COLO 205 25.1 µM | MCF7 > 31.6 µM | U-251 > 31.6 µM | Malme-3M > 31.6 µM | SK-OV-3 > 31.6 µM | RXF 393 > 31.6 µM | 786-0 > 31.6 µM | OVCAR-3 > 31.6 µM | SK-MEL-2 > 10 µM | UACC-257 > 31.6 µM

C(=N\c1cc2cc(Sc3ccccc3)ccc2[nH]1)/c1ccccc1
inactive: ACHN > 12.5 µM | MDA-MB-435 4.28 µM | MOLT-4 > 12.5 µM | BT-549 > 12.5 µM | SK-MEL-28 > 12.5 µM | SF-268 > 12.5 µM | HL-60 > 12.5 µM | MCF7 > 12.5 µM | Malme-3M > 12.5 µM | RXF 393 > 12.5 µM | 786-0 > 12.5 µM | OVCAR-3 > 12.5 µM | UACC-257 > 12.5 µM

CC(C)(C)OC(=O)C1/C(=C/CO)CN1C(=O)OC(C)(C)C (configuration not stated)
inactive: ACHN > 100 µM | MDA-MB-435 > 100 µM | UO-31 > 100 µM | MOLT-4 57.3 µM | BT-549 > 100 µM | SK-MEL-28 > 100 µM | SF-268 > 100 µM | HL-60 > 100 µM | COLO 205 > 100 µM | MCF7 > 100 µM | Malme-3M > 100 µM | SK-OV-3 > 100 µM | 786-0 > 100 µM | OVCAR-3 > 100 µM | SK-MEL-2 > 100 µM | UACC-257 > 100 µM

CC(O)=C1C(=O)CCC1=O
inactive: ACHN > 100 µM | MDA-MB-435 > 100 µM | UO-31 > 100 µM | MOLT-4 > 100 µM | BT-549 > 100 µM | SK-MEL-28 > 100 µM | SF-268 > 100 µM | HL-60 > 100 µM | NCI-H226 > 100 µM | COLO 205 > 100 µM | MCF7 > 100 µM | U-251 > 100 µM | Malme-3M > 100 µM | SK-OV-3 > 100 µM | RXF 393 > 100 µM | OVCAR-3 > 100 µM | SK-MEL-2 > 100 µM | UACC-257 > 100 µM

Cc1ccc2c(sc(-c3ccc4c(c3)sc(-c3ccc(N(C)C)cc3)[n+]4C)[n+]2C)c1S(=O)(=O)O.Cc1ccc2c(sc(-c3ccc4c(c3)sc(-c3ccc5c(c3)sc(-c3ccc(N(C)C)cc3)[n+]5C)[n+]4C)[n+]2C)c1S(=O)(=O)O
inactive: ACHN 62.7 µM | MDA-MB-435 > 100 µM | UO-31 > 100 µM | MOLT-4 51.9 µM | BT-549 30.8 µM | SK-MEL-28 > 100 µM | SF-268 > 100 µM | HL-60 52.8 µM | MDA-MB-231 22 µM | COLO 205 > 100 µM | MCF7 > 100 µM | U-251 > 100 µM | SK-OV-3 > 100 µM | 786-0 > 100 µM | OVCAR-3 > 100 µM | SK-MEL-2 > 100 µM | UACC-257 > 100 µM

Oc1ccc2ccccc2c1/N=N/c1ccc(Cl)cc1
inactive: ACHN > 100 µM | MDA-MB-435 > 100 µM | UO-31 > 100 µM | MOLT-4 > 100 µM | BT-549 > 100 µM | SK-MEL-28 > 100 µM | SF-268 > 100 µM | HL-60 > 100 µM | NCI-H226 > 100 µM | MDA-MB-231 26.9 µM | COLO 205 53 µM | U-251 > 100 µM | Malme-3M > 100 µM | SK-OV-3 > 100 µM | RXF 393 > 100 µM | 786-0 34.6 µM | OVCAR-3 > 100 µM | SK-MEL-2 > 100 µM | UACC-257 > 100 µM
